# From US20060069132A1, “Azolecarboxamide herbicides” (priority 2004, published 2006)
# Columns and labels:
# barnyardgrass [1] = experiment: Test B flooded paddy test; assay type: in vivo, Echinochloa crus-galli; details: 1000 g ai/ha, visual rating, scale 0 to 100 (0 no effect, 100 complete control), 13 to 15 days
# Procedure, shortened: (§1)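 Paddy species grown to the 2-leaf stage under flooding; blackgrass sprayed postemergence at 2–18 cm (1- to 4-leaf stage). Plants kept in a greenhouse for 13 to 15 days, then visually rated against controls on 0 (no effect) to 100 (complete control).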
# [2] = system: small flower umbrella sedge; experiment: Test B flooded paddy test; assay type: in vivo, Cyperus difformis; details: 1000 g ai/ha, visual rating, scale 0 to 100 (0 no effect, 100 complete control), 13 to 15 days
# Procedure, shortened: as §1
# velvetleaf = experiment: Test B pre-/postemergence herbicide test; assay type: in vivo, Abutilon theophrasti; details: for Velvetleaf plant response rating (0 to 100 scale) / Plant response rating, Velvetleaf: preemergence; for Velvetleaf plant response rating: postemergence, scale 0 (no effect) to 100 (complete control)
# Procedure, shortened: (§2)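 Plants compared with untreated controls 13–15 days post-treatment and given a visual 0–100 injury score. Applications: preemergence to seeds; postemergence at 1- to 4-leaf (2–18 cm); paddy species flooded, 2-leaf stage. Vehicle non-phytotoxic, surfactant included.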
# barnyardgrass [3] = experiment: Test B pre-/postemergence herbicide test; assay type: in vivo, Echinochloa crus-galli; details: for Barnyardgrass plant response rating (0 to 100 scale) / Plant response rating, Barnyardgrass: preemergence; for Barnyardgrass plant response rating: postemergence, scale 0 (no effect) to 100 (complete control)
# Procedure, shortened: (§3)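 Test chemicals in a non-phytotoxic solvent mixture with surfactant were applied preemergence to seeded species and postemergence to plants 2-18 cm tall (1- to 4-leaf stage); rice and barnyardgrass were also tested in a flooded paddy at the 2-leaf stage. Visual rating versus controls after 13-15 days in greenhouse, scale 0 (no effect) to 100 (complete control).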
# pigweed = experiment: Test B pre-/postemergence herbicide test; assay type: in vivo, Amaranthus retroflexus; details: for Pigweed plant response rating (0 to 100 scale) / Plant response rating, Pigweed: preemergence; for Pigweed plant response rating: postemergence, scale 0 (no effect) to 100 (complete control)
# Procedure, shortened: as §2
# rice = experiment: Test B flooded paddy test; assay type: in vivo, Oryza sativa; details: 1000 g ai/ha, visual rating, scale 0 to 100 (0 no effect, 100 complete control), 13 to 15 days
# Procedure, shortened: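 Formulated test chemicals went onto postemergence plants measuring 2 to 18 cm, at one to four leaves. For the paddy assay, species had reached two leaves. Scoring took place 13–15 days later by eye, relative to untreated plants, using 0 for no effect up to 100 for full control.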
# blackgrass = experiment: Test B postemergence herbicide test; assay type: in vivo, Alopecurus myosuroides; details: postemergence, visual rating, scale 0 (no effect) to 100 (complete control)
# Procedure, shortened: as §1
# Surinam grass = experiment: Test B pre-/postemergence herbicide test; assay type: in vivo, Urochloa decumbens; details: for Surinam Grass plant response rating (0 to 100 scale) / Plant response rating, Surinam Grass: preemergence; for Surinam Grass plant response rating: postemergence, scale 0 (no effect) to 100 (complete control)
# Procedure, shortened: as §2
# giant foxtail = experiment: Test B pre-/postemergence herbicide test; assay type: in vivo, Setaria faberi; details: for Foxtail, Giant plant response rating (0 to 100 scale) / Plant response rating, Foxtail, Giant: preemergence; for Foxtail, Giant plant response rating: postemergence, scale 0 (no effect) to 100 (complete control)
# Procedure, shortened: as §2
# lambsquarters = experiment: Test B pre-/postemergence herbicide test; assay type: in vivo, Chenopodium album; details: for Lambsquarters plant response rating (0 to 100 scale) / Plant response rating, Lambsquarters: preemergence; for Lambsquarters plant response rating: postemergence, scale 0 (no effect) to 100 (complete control)
# Procedure, shortened: as §2
# ducksalad = experiment: Test B flooded paddy test; assay type: in vivo, Heteranthera limosa; details: 1000 g ai/ha, visual rating, scale 0 to 100 (0 no effect, 100 complete control), 13 to 15 days
# Procedure, shortened: as §1
# large crabgrass = experiment: Test B pre-/postemergence herbicide test; assay type: in vivo, Digitaria sanguinalis; details: for Crabgrass, Large plant response rating (0 to 100 scale) / Plant response rating, Crabgrass, Large: preemergence; for Crabgrass, Large plant response rating: postemergence, scale 0 (no effect) to 100 (complete control)
# Procedure, shortened: as §2
# cocklebur = experiment: Test B pre-/postemergence herbicide test; assay type: in vivo, Xanthium strumarium; details: for Cocklebur plant response rating (0 to 100 scale) / Plant response rating, Cocklebur: preemergence; for Cocklebur plant response rating: postemergence, scale 0 (no effect) to 100 (complete control)
# Procedure, shortened: as §3
# morningglory = experiment: Test B pre-/postemergence herbicide test; assay type: in vivo, Ipomoea coccinea; details: for Morningglory plant response rating (0 to 100 scale) / Plant response rating, Morningglory: preemergence; for Morningglory plant response rating: postemergence, scale 0 (no effect) to 100 (complete control)
# Procedure, shortened: as §3
# wheat = experiment: Test B postemergence herbicide test; assay type: in vivo, Triticum aestivum; parameters: key to Wheat plant response rating: 0 = no effect, 100 = complete control; details: postemergence, visual rating, scale 0 (no effect) to 100 (complete control)
# Procedure, shortened: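 Read-out: visual comparison with controls, scored 0 to 100, where 100 means complete control and 0 no effect. Formulated chemicals were applied postemergence to plants 2–18 cm tall (1- to 4-leaf), or to flooded-paddy plants at the 2-leaf stage, then held 13 to 15 days under glass.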
# [4] = 125 g ai/ha, 0 = no effect, 100 = complete control
# [5] = 500 g ai/ha, visual rating 0-100, 0 no effect, 100 complete control
# [6] = 500 g ai/ha, visual rating, 0 = no effect, 100 = complete control
compound,measurement,setting,value
C=CCNC(=O)c1cccc(NC(=O)c2sc(C(C)(C)C)nc2C)c1 [Compound 202],Barnyardgrass plant response rating,barnyardgrass [1],40
same,"Sedge, Umbrella plant response rating",[2],50
same,Velvetleaf plant response rating (0 to 100 scale),velvetleaf; [4],10
same,"Plant response rating, Velvetleaf",velvetleaf; [5],20
same,Velvetleaf plant response rating,"velvetleaf; 125 g ai/ha, visual rating",10
same,Velvetleaf plant response rating,"velvetleaf; 500 g ai/ha, visual rating",30
same,Barnyardgrass plant response rating (0 to 100 scale),barnyardgrass [3]; [4],20
same,"Plant response rating, Barnyardgrass",barnyardgrass [3]; [5],90
same,Barnyardgrass plant response rating,"barnyardgrass [3]; 125 g ai/ha, visual rating",0
same,Barnyardgrass plant response rating,"barnyardgrass [3]; 500 g ai/ha, visual rating",0
same,Pigweed plant response rating (0 to 100 scale),pigweed; [4],10
same,"Plant response rating, Pigweed",pigweed; [5],90
same,Pigweed plant response rating,"pigweed; 125 g ai/ha, visual rating",30
same,Pigweed plant response rating,"pigweed; 500 g ai/ha, visual rating",40
same,Rice plant response rating,rice,30
same,Blackgrass plant response rating,blackgrass; 125 g ai/ha,0
same,Blackgrass plant response rating,blackgrass; 500 g ai/ha,0
same,Surinam Grass plant response rating (0 to 100 scale),Surinam grass; [4],0
same,"Plant response rating, Surinam Grass",Surinam grass; [5],60
same,Surinam Grass plant response rating,"Surinam grass; 125 g ai/ha, visual rating",10
same,Surinam Grass plant response rating,"Surinam grass; 500 g ai/ha, visual rating",10
same,"Foxtail, Giant plant response rating (0 to 100 scale)",giant foxtail; [4],10
same,"Plant response rating, Foxtail, Giant",giant foxtail; [5],90
same,"Foxtail, Giant plant response rating","giant foxtail; 125 g ai/ha, visual rating",10
same,"Foxtail, Giant plant response rating","giant foxtail; 500 g ai/ha, visual rating",10
same,Lambsquarters plant response rating (0 to 100 scale),lambsquarters; [4],30
same,"Plant response rating, Lambsquarters",lambsquarters; [5],100
same,Lambsquarters plant response rating,"lambsquarters; 125 g ai/ha, visual rating",50
same,Lambsquarters plant response rating,"lambsquarters; 500 g ai/ha, visual rating",50
same,Ducksalad plant response rating,ducksalad,60
same,"Crabgrass, Large plant response rating (0 to 100 scale)",large crabgrass; [4],60
same,"Plant response rating, Crabgrass, Large",large crabgrass; [5],100
same,"Crabgrass, Large plant response rating","large crabgrass; 125 g ai/ha, visual rating",0
same,"Crabgrass, Large plant response rating","large crabgrass; 500 g ai/ha, visual rating",10
same,Cocklebur plant response rating (0 to 100 scale),cocklebur; [4],0
same,"Plant response rating, Cocklebur",cocklebur; [5],10
same,Cocklebur plant response rating,"cocklebur; 125 g ai/ha, visual rating",30
same,Cocklebur plant response rating,"cocklebur; 500 g ai/ha, visual rating",40
same,Morningglory plant response rating (0 to 100 scale),morningglory; [4],0
same,"Plant response rating, Morningglory",morningglory; [5],30
same,Morningglory plant response rating,"morningglory; 125 g ai/ha, visual rating",20
same,Morningglory plant response rating,"morningglory; 500 g ai/ha, visual rating",40
same,Wheat plant response rating,wheat; 125 g ai/ha,0
same,Wheat plant response rating,wheat; 500 g ai/ha,0
CCc1nc(C(C)(C)C)sc1C(=O)Nc1cccc(C(=O)NCC2CC2)n1 [Compound 215],Barnyardgrass plant response rating,barnyardgrass [1],30
same,"Sedge, Umbrella plant response rating",[2],90
same,Velvetleaf plant response rating (0 to 100 scale),velvetleaf; [4],0
same,"Plant response rating, Velvetleaf",velvetleaf; [6],60
same,Velvetleaf plant response rating,"velvetleaf; 125 g ai/ha, visual rating",40
same,Velvetleaf plant response rating,"velvetleaf; 500 g ai/ha, visual rating",60
same,Barnyardgrass plant response rating (0 to 100 scale),barnyardgrass [3]; [4],10
same,"Plant response rating, Barnyardgrass",barnyardgrass [3]; [6],60
same,Barnyardgrass plant response rating,"barnyardgrass [3]; 125 g ai/ha, visual rating",0
same,Barnyardgrass plant response rating,"barnyardgrass [3]; 500 g ai/ha, visual rating",20
same,Pigweed plant response rating (0 to 100 scale),pigweed; [4],80
same,"Plant response rating, Pigweed",pigweed; [6],100
same,Pigweed plant response rating,"pigweed; 125 g ai/ha, visual rating",20
same,Pigweed plant response rating,"pigweed; 500 g ai/ha, visual rating",70
same,Rice plant response rating,rice,30
same,Blackgrass plant response rating,blackgrass; 125 g ai/ha,0
same,Blackgrass plant response rating,blackgrass; 500 g ai/ha,0
same,Surinam Grass plant response rating (0 to 100 scale),Surinam grass; [4],0
same,"Plant response rating, Surinam Grass",Surinam grass; [6],70
same,Surinam Grass plant response rating,"Surinam grass; 125 g ai/ha, visual rating",0
same,Surinam Grass plant response rating,"Surinam grass; 500 g ai/ha, visual rating",10
same,"Foxtail, Giant plant response rating (0 to 100 scale)",giant foxtail; [4],0
same,"Plant response rating, Foxtail, Giant",giant foxtail; [6],80
same,"Foxtail, Giant plant response rating","giant foxtail; 125 g ai/ha, visual rating",0
same,"Foxtail, Giant plant response rating","giant foxtail; 500 g ai/ha, visual rating",20
same,Lambsquarters plant response rating (0 to 100 scale),lambsquarters; [4],90
same,"Plant response rating, Lambsquarters",lambsquarters; [6],100
same,Lambsquarters plant response rating,"lambsquarters; 125 g ai/ha, visual rating",0
same,Lambsquarters plant response rating,"lambsquarters; 500 g ai/ha, visual rating",0
same,Ducksalad plant response rating,ducksalad,90
same,"Crabgrass, Large plant response rating (0 to 100 scale)",large crabgrass; [4],0
same,"Plant response rating, Crabgrass, Large",large crabgrass; [6],80
same,"Crabgrass, Large plant response rating","large crabgrass; 125 g ai/ha, visual rating",0
same,"Crabgrass, Large plant response rating","large crabgrass; 500 g ai/ha, visual rating",0
same,Cocklebur plant response rating (0 to 100 scale),cocklebur; [4],0
same,"Plant response rating, Cocklebur",cocklebur; [6],0
same,Cocklebur plant response rating,"cocklebur; 125 g ai/ha, visual rating",20
same,Cocklebur plant response rating,"cocklebur; 500 g ai/ha, visual rating",80
same,Morningglory plant response rating (0 to 100 scale),morningglory; [4],10
same,"Plant response rating, Morningglory",morningglory; [6],20
same,Morningglory plant response rating,"morningglory; 125 g ai/ha, visual rating",0
same,Morningglory plant response rating,"morningglory; 500 g ai/ha, visual rating",40
same,Wheat plant response rating,wheat; 125 g ai/ha,0
same,Wheat plant response rating,wheat; 500 g ai/ha,20
